Assay results as given in patent US20240082409A1, “Modified peptide ligands for stable delivery of highly potent payloads to tumors: Method of making and using same” (priority 2020, published 2024).
Where “and” joins values, the source holds several entries; their conditions need not be identical. Equal values may be shown once. Entries after “also recorded” stand apart in the source; their conditions may differ. Numbered stars: 1 amine (or outer) side, 2 acyl side, 3 side chain; on linkers, the order of the positions; unused ones are H or OH. Bridge positions count the residues as written; N and C are the ends. Square brackets hold non-standard residues; d marks the D form. Peptide text beside a SMILES is read from it. I, II: the chains in the order shown. * marks the point of attachment. X1 = O=C([C@@H](CCCCn1nnc2c1-c1ccccc1N([*:3])Cc1ccccc1-2)N[*:1])[*:2]; Dolaproine = CO[C@@H]([C@@H]1CCCN1)[C@@H](C)C(=O)O; X3 = O=C(CCC(=O)[*:1])NCCOCCOCCOCCC(=O)[*:2]; Dil = CC[C@H](C)[C@H](NC)[C@@H](CC(=O)O)OC; PABC = O=C(OCc1ccc(N[*:1])cc1)[*:2]; X2 = C[C@@H](N*)[C@@H](O)c1ccccc1; d3Pal = N[C@H](Cc1cccnc1)C(=O)O; Cit = NC(=O)NCCC[C@H](N)C(=O)O; pGlu = O=C1CC[C@@H](C(=O)O)N1; NMeV = CN[C@H](C(=O)O)C(C)C

Tests used:
HCC1806 TNBC CDX = test: Tumor growth of HCC1806 xenografts in female SCID mice; assay type: in vivo
Description: FIG. 4A depicts tumor volume in female SCID mice bearing HCC1806 TNBC CDX during treatment with saline; OTS-P22 or MMAE at a single i.v. injection of 0.5 μmol/kg on day 0 (arrow). Tumor volume values in mm^3 are presented as mean±standard error of 10 mice per group. Statistical analysis was performed using ANOVA followed by Tukey's multiple comparison test. ***<0.001, **<0.01, *<0.05 were significant.

[1] = Animal weight, hematology and normal organ histology in treated SCID mice; assay type: in vivo; details: for effect on animal weight: single i.v. injection 0.5 μmol/kg, SCID mice bearing HCC1806
Excerpt: FIG. 4B depicts animal weight in female SCID mice bearing HCC1806 TNBC CDX during treatment with saline; OTS-P22 or MMAE at a single i.v. injection of 0.5 μmol/kg on day 0 (arrow). […] are presented as mean±standard error of 10 mice per group.
FIG. 5A depict hematology parameters of saline- and OTS-P22 treated SCID mice bearing HCC1806 TNBC xenografts (n=10) as described in FIG. 4A and into in accordance with the preferred embodiment of the present invention;
FIG. 5B depict representative hematoxylin-eosin staining slides of normal organs from saline- and OTS-P22 treated SCID mice bearing HCC1806 TNBC xenografts as described in FIG. 4A and into in accordance with the preferred embodiment of the present invention;

[2] = In-vitro potency of LHRH-based drug conjugates (summary statement); details: cell line not stated
[3] = test system: caspase activity in HCC1806 cells; details: 100 nM, 48 hours
Description: At the end of the incubation, cells were washed three times, lyzed and proteins quantified using Bradford reagents. Apoptosis assay was performed using 100 μg proteins according to ApoTarget Caspase Colorimetric Protease Assay Sampler Kit instructions (Invitrogen, Carlsbad, CA).

[4] = In-vitro stability in human plasma (RP-HPLC/mass spectrometry); assay type: in vitro ADME
Description: (§1) FIGS. 7A, 7B, 7C and 7D depicts the in-vitro stability of OTS-P23 in human plasma at 0, 2, 8 and 24 hours incubation times respectively in accordance with a preferred embodiment of the present invention. OTS-P23 is incubated at 100 μg/100 μl in 80% plasma from human or for 0, 2, 8 or 24 hours. Solutions are then centrifuged using Amicon centrifugal devices (cut-off 10 KDa) and 20 μl of the lower molecular weight fractions are analyzed by RP-HPLC/mass spectrometry. […] A minor peak (2.26%) was detected with a molecular weight of 2240.3 Dalton (metabolite).
as §1, with “FIGS. 13A, 13B, 13C” for “FIGS. 7A, 7B, 7C”, “and 13D” for “and 7D”, “of OTS-P28” for “of OTS-P23”

[5] = test system: normal 3T3 mouse fibroblasts; details: 0.165-100 nM, 3 hours exposure, then 93 hours, MTS
Description: (§2) FIG. 2A depicts the viability of HCC1806 and BT-549 TNBC cell lines as well as normal 3T3 mouse fibroblasts in presence of peptide drug conjugate OTS-P22 at increasing concentrations (Log 0.165-100 nM). Cells were plated at 10,000 cells/well on 96-well plates in RPMI or DMEM medium (pH 7.4) with 10% FBS or 10% BCS and after attachment they were washed and incubated with OTS-P22 in complete medium without antibiotics for 3 hours. After 3 hours, cells were washed and then incubated in complete medium without antibiotics for an additional 93 hours. At the end of the incubation period cells were washed and cell viability was measured using MTS assay according to the manufacturer's instructions (Promega, Madison, WI). Data shown are percentage mean value and standard error of triplicate measurements. Differences between mean values were evaluated by one-way ANOVA followed by Tukey's honestly significant difference procedure. **<0.01 were highly significant.

HCC1806 TNBC cell line = test: MTS proliferation (viability) assay, HCC1806; assay type: cell-based, human
Description: as §2

Question: For CC[C@H](C)[C@@H]([C@@H](CC(=O)N1CCC[C@H]1[C@H](OC)[C@@H](C)C(=O)N[C@H](C)[C@@H](O)c1ccccc1)OC)N(C)C(=O)[C@@H](NC(=O)[C@@H](NC)C(C)C)C(C)C [MMAE, monomethyl auristatin E, reference compound] (H-[NMeV]V[Dil][Dolaproine]-X2), which “effect on tumor growth (in words)” value (HCC1806 TNBC CDX; single i.v. injection 0.5 μmol/kg, end of 21 days study) is on record?
Answer: did not show any significant tumor growth inhibition; also recorded: no significant effect

Question: What about the “effect on animal weight” value [1] of the same molecule?
Answer: Neither treatment with OTS-P22 or MMAE affected animal weight

Question: Which “in-vitro potency (in words)” value [2] does the source give for CC[C@H](C)[C@@H]([C@@H](CC(=O)N1CCC[C@H]1[C@H](OC)[C@@H](C)C(=O)N[C@H](C)[C@@H](O)c1ccccc1)OC)N(C)C(=O)[C@@H](NC(=O)[C@H](C(C)C)N(C)C(=O)OCc1ccc(NC(=O)[C@H](CCCNC(N)=O)NC(=O)[C@@H](NC(=O)CCOCCOCCOCCNC(=O)CCC(=O)N2Cc3ccccc3-c3nnn(CCCC[C@@H](NC(=O)[C@H](Cc4ccc(O)cc4)NC(=O)[C@H](CO)NC(=O)[C@@H](Cc4cccnc4)NC(=O)[C@H](Cc4c[nH]cn4)NC(=O)[C@@H]4CCC(=O)N4)C(=O)N[C@@H](CC(C)C)C(=O)N[C@@H](CCCNC(=N)N)C(=O)N4CCC[C@H]4C(=O)N[C@H](C)C(N)=O)c3-c3ccccc32)C(C)C)cc1)C(C)C [OTS-P22, Glp-His-DPal-Ser-Tyr-DLys[dPEG3-Val-Cit-PABC-MMAE]-Leu-Arg-Pro-DAla-NH2] (I: [pGlu]H[d3Pal]SY[X1]LRP[dA]-NH2 / II: V[Cit][PABC][NMeV]V[Dil][Dolaproine]-X2; linker I:6-II:N via X3) here?
Answer: higher potency at low nanomolar concentrations

Question: What about the “increase of caspase activity as compared to saline-treated cells” value [3] of the same molecule?
Answer: 1.5 fold

Question: What about the “minor peak (metabolite, 2240.3 Dalton)” value ([4]; 80% human plasma, 8 hours incubation) of the same molecule?
Answer: 2.26%

Question: What about the conjugate still intact ([4]; 80% human plasma, 8 hours incubation, 100 μg/100 μl) of the same molecule?
Answer: 97.74%

Question: And the remaining at 8 h, 100 μg/100 μl ([4]; 80% human plasma, 8 hours incubation, 100 μg/100 μl, read-out: conjugate still intact)?
Answer: 97.7%

Question: What about the “potency relative to AEZS-108 in term of in-vivo tumor growth inhibition of HCC1806 xenografts” value (HCC1806 TNBC CDX; compared with first generation conjugate AEZS-108) of the same molecule?
Answer: at least 16 times

Question: And the partial response (HCC1806 TNBC CDX; single i.v. 0.5 μmol/kg, 21 days, 80.5% in 2/10 mice, 88.5% in 1/10 mice)?
Answer: 80.5% and 88.5%

Question: And the tumor growth inhibition (HCC1806 TNBC CDX; single i.v. injection 0.5 μmol/kg (1.435 mg/kg), 21 days post-treatment, SCID mice)?
Answer: 100%

Question: What about the “mice showing complete response” value (HCC1806 TNBC CDX; single i.v. injection 0.5 μmol/kg, 21 days post-treatment, 10 mice per group) of the same molecule?
Answer: 7/10

Question: What about the “effect on viability of 3T3 normal fibroblasts” value [5] of the same molecule?
Answer: no effect

Question: And the effect on hematology ([1]; SCID mice bearing HCC1806 xenografts)?
Answer: No signifcant effect

Question: And the “effect on normal tissue histology” value ([1]; SCID mice bearing HCC1806 xenografts, hematoxylin-eosin)?
Answer: No signifcant effect

Question: And the “effect on animal weight” value [1]?
Answer: No signifcant effect; also recorded: Neither treatment with OTS-P22 or MMAE affected animal weight

Question: Which “in-vitro potency (in words)” value [2] does the source give for “Glp-DHis-Trp-DSer-Tyr-DLys[Glut-Val-Cit-PABC-MMAE]-Leu-Arg-Pro-DAla-NH2 [OTS-P31]” here?
Answer: higher potency at low nanomolar concentrations

Question: Which “in-vitro potency (in words)” value [2] does the source give for “Glp-His-DPal-Ser-Tyr-DCys[Val-Cit-PABC-MMAE]-Leu-Arg-Pro-DAla-NH2 [OTS-P26]” here?
Answer: higher potency at low nanomolar concentrations

Question: And the “effect on viability of HCC1806 TNBC cells (in words)” value (HCC1806 TNBC cell line; MTS proliferation assay)?
Answer: dose-dependent manner

Question: Which results are given for “Glp-His-DPal-Ser-Tyr-DCys[dPEG8-Val-Cit-PABC-MMAE]-Leu-Arg-Pro-DAla-NH2 [OTS-P28]”?
Answer: in-vitro potency (in words) [2]: higher potency at low nanomolar concentrations; stability in human plasma (in words) ([4]; human plasma): highly stable; anti-proliferative activity in-vitro on HCC1806 TNBC cell line (in words) (HCC1806 TNBC cell line): low nanomolar concentrations

Question: For “Glp-His-DPal-Ser-Tyr-DLys[dPEG8-Val-Cit-PABC-MMAE]-Leu-Arg-Pro-DAla-NH2 [OTS-P23]”, which “in-vitro potency (in words)” value [2] is on record?
Answer: higher potency at low nanomolar concentrations

Question: For “Glp-His-Trp-DSer-Tyr-DLys[-dPEG5-Val-Cit-PABC-MMAE]-Leu-Arg-Pro-NHEt [OTS-P23b]”, which “in-vitro potency (in words)” value [2] is on record?
Answer: higher potency at low nanomolar concentrations
